Source: patent publication US20080025916A1, “Tailored Treatment Suitable for Different Forms of Mastocytosis” (AB Science, priority 2003, published 2008)

Key:
[1] = target: 816 mutated c-kit (D816V mutant form of the human c-kit receptor) (Homo sapiens, UniProt P10721, D816V)
Protocol: (§1) At 24, 48 and 72 hours, the number of viable cells was determined in each condition using the trypan blue exclusion assay.

[2] = test system: juxtamembrane mutated c-kit; conditions: shown in WO 02/080925; cited from earlier work
[3] = test system: mouse bone marrow-derived mast cell line (BMMC) expressing the mutant D816V form of the human c-kit; assay: proliferation of BMMC line, viable cell count by trypan blue exclusion assay; format: cell-based; conditions: 24, 48 and 72 hours
Protocol: as §1

[4] = target: c-kit wild (Homo sapiens, UniProt P10721); conditions: shown in WO 02/080925; cited from earlier work
[5] = test system: lymphoid BaF/3 murine cell line transfected with the D816V mutant form of the human c-kit; assay: proliferation of BaF/3 cells transfected with D816V c-kit; format: cell-based; conditions: not affected up to 1 microM, inhibited above 1 microM as in BMMC
Protocol: as §1

Chain of 816 mutated c-kit (D816V mutant form of the human c-kit receptor) (P10721 26-976 D816V): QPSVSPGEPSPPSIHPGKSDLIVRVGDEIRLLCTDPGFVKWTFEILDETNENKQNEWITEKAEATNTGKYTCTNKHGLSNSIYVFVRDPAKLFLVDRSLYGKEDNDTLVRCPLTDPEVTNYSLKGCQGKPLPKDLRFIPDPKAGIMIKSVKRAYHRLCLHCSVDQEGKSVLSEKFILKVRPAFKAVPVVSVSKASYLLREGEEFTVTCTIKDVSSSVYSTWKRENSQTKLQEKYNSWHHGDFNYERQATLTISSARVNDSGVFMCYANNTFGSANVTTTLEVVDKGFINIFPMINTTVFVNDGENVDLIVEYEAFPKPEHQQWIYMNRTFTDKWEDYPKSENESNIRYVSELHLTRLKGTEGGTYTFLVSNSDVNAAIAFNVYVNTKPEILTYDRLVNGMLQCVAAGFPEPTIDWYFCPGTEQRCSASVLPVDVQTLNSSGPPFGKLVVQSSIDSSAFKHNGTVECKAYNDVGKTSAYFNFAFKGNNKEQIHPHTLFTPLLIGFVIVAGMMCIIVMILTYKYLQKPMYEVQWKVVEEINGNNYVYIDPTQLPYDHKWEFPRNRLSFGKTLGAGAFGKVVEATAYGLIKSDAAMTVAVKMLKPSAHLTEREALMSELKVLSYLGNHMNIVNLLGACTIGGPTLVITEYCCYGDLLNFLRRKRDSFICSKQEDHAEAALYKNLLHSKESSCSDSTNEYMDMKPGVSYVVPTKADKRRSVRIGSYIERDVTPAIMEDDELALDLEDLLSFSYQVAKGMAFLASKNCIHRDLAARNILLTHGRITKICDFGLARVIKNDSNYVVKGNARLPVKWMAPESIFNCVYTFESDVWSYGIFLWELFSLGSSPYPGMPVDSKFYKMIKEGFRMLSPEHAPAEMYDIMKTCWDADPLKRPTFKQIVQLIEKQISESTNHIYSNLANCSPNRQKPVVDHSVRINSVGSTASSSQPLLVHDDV
Chain of c-kit wild (P10721 26-976): as the sequence (P10721 26-976 D816V) above, with V791D counted along it

## Cc1ccc(NC(=O)c2ccc(CN3CCN(C)CC3)cc2)cc1Nc1nccc(-c2cccnc2)n1 [STI571]
[1]; pharmacological doses
  resistance of the D816V mutant form of the human c-kit receptor: resistant
[1]; see FIGS. 1 and 2
  activity on 816 mutated c-kit: not active
[2]
  activity on the juxtamembrane mutated c-kit: very active
[3]; STI-571 under or equal to 1 microM, FIG. 2
  proliferation of the BMMC line with the mutant D816V form of the human c-kit: not affected
[3]; concentrations of STI-571 above 1 microM (up to 10^-5 M)
  proliferation of the BMMC line with the mutant D816V form of the human c-kit: dose- and time-dependently inhibited
[4]
  activity on c-kit wild: active
[5]
  proliferation of BaF/3 cells with D816V human c-kit (same result as BMMC): also observed
